Patent publication US20130210852A1, “METHODS FOR TREATING INFECTION” (priority 2010, published 2013)
In brackets after ≈: the same amount, converted by molar mass. Where two headings read alike, the source gives them in different places.

How the values were obtained:
[1] = tested on: enterotoxigenic E coli strains; experiment: MIC against rifaximin by agar dilution, ETEC isolates; assay type: cell-based; settings: Escherichia coli
Procedure: (§1) Five enterotoxigenic E coli strains, 2 enteroaggregative E coli strains, and 1 S sonnei isolate were included in the study. The isolates had been identified previously from patients with TD acquired in Guadalajara, Mexico, during the summer of 2004 (5). […] The susceptibility of all isolates to rifaximin was determined by agar dilution methodology following the recommendations of the Clinical and Laboratory Standards Institute.

[2] = tested on: HCT-8 cells infected with rifaximin-exposed EAEC strains; experiment: HCT-8 cell culture assay for interleukin-8 (IL-8) release; assay type: cell-based, human
Procedure: The human intestinal adenocarcinoma cell line, HCT-8, was used to study inflammatory modulators as previously published (Huang, 2004 #15). Monolayers of HCT-8 cells (ATCC CCL-244; American Type Culture Collection, Rockville, Md.) were grown in 24-well culture plates (Corning Costar, Corning, N.Y.) in an RPMI 1640 medium (Sigma-Aldrich Co, St Louis, Mo.) supplemented with 100 U/mL of penicillin, 100 μg/mL of streptomycin, and 0.25 μg/mL of amphotericin B. They were maintained in a medium supplemented with 10% fetal bovine serum (HyClone, Logan, Utah) and grown until approximately 4×10^5 cells/well confluence.
HCT-8 cells were infected with EAEC strains recovered from MacConkey agar in triplicate at a 100:1 ratio in an antibiotic- and serum-free RPMI 1640 medium. Cells were incubated for 3 hours in a humidified chamber at 37° C. in an atmosphere containing 5% CO2, after which supernatants were collected. The supernatant concentration of IL-8 in each well was determined by using a commercially available enzyme-linked immunosorbent assay kit for human IL-8 (R&D Systems, Minneapolis, Minn.). All samples were tested twice, and the average value was reported.

[3] = tested on: enteroaggregative E coli strains; experiment: MIC against rifaximin by agar dilution, EAEC isolates; assay type: cell-based; settings: Escherichia coli; 2 EAEC isolates
Procedure: as §1

[4] = tested on: ETEC isolates (ST, LT, CS2/CS3, CS6); assay type: cell-based, Escherichia coli; as to Expression of virulence factor CS2/CS3 in ETEC isolates: key: + = present; − = not present; NV, not viable; as to Expression of virulence factor CS6 in ETEC isolates: key: + = present; − = not present; NV, not viable; as to Expression of virulence factor LT in ETEC isolates: key: + = present; − = not present; NV, not viable; as to Expression of virulence factor ST in ETEC isolates: key: + = present; − = not present; NV, not viable
[5] = tested on: EAEC strain O42 adherence to HEp-2 cells; experiment: HEp-2 cell attachment assay (microscopy after Wright-Giemsa staining); assay type: cell-based, human; settings: HEp-2 cells incubated 24 h with antibiotic, washed, then EAEC 3 h
S sonnei isolate = experiment: MIC against rifaximin by agar dilution, S sonnei isolate; assay type: cell-based; settings: Shigella sonnei
Procedure: as §1

C difficile [6] = settings: cited from earlier work
C difficile [7] = settings: cited from earlier work; remark: listed apart in the source
ETEC strains = experiment: Isolate viability after rifaximin exposure, ETEC
[8] = tested on: EAEC strain O42 adherence to HCT-8 cells; assay type: cell-based, human; settings: 24 h pretreatment with 64 mg (FIG. 2: 64 μg/ml), EAEC 3 h
C difficile [9] = experiment: Susceptibility testing of C difficile isolates (rifaximin agar dilution, rifampin E strips)
[10] = tested on: EAEC adherence with dialyzed conditioned medium of HEp-2 cells; experiment: Effect of dialyzed HEp-2 supernatants on EAEC adherence; assay type: cell-based, human; set-up: dose or concentration left out as unconfirmed; settings: HEp-2 treated 24 h, supernatant dialyzed; chambers with or without HEp-2 cells, 3 h
Procedure: HEp-2 cells were cultured in T-175 flasks as described above. […] After 24 h, the medium was collected, loaded into regenerated cellulose dialysis tubing (cutoff, 6 to 8 kDa; Spectra/Por, Rancho Domiguez, Calif.), and dialyzed against 4 liters of PBS changed four times. Each dialysis step lasted at least 6 h and was carried out at 4° C. Dialyzed supernatants were either used immediately in adherence assays or stored at −20° C. until use.
The effect of supernatants on EAEC adherence was determined by mixing EAEC with the dialyzed media from the different antibiotic (or control) treatment groups and adding the bacteria to HEp-2 cells cultured in chambered slides or to chambered slides with no HEp-2 cells. Adherence was visualized microscopically as described above.

[11] = rifaximin 8 mg/L, exposure 4 hrs
[12] = rifaximin 8 mg/L, exposure 8 hrs
[13] = rifaximin 8 mg/L, exposure 18 hrs
[14] = rifaximin 8 mg/L, exposure 24 hrs
[15] = rifaximin 32 mg/L, exposure 4 hrs
[16] = rifaximin 32 mg/L, exposure 8 hrs
[17] = rifaximin 32 mg/L, exposure 18 hrs
[18] = rifaximin 64 mg/L, exposure 4 hrs
[19] = rifaximin 64 mg/L, exposure 8 hrs
[20] = 201 isolates, Canada, 1992 to 2007

With `CO[C@H]1/C=C/O[C@@]2(C)Oc3c(C)c(O)c4c(O)c(c5c(nc6cc(C)ccn65)c4c3C2=O)NC(=O)/C(C)=C\C=C\[C@H](C)[C@H](O)[C@@H](C)[C@@H](O)[C@@H](C)[C@H](OC(C)=O)[C@@H]1C` [Rifaximin, (2S,16Z,18E,20S,21S,22R,23R,24R,25S,26S,27S,28E)-5,6,21,23,25 Pentahydroxy-27-methoxy-2,4,11,16,20,22,24,26-octamethyl-2,7-(epoxypentadeca-(1,11,13)trienimino)benzofuro (4,5-e) pyrido(1,2,-a) benzimidazole-1,15(2H)-dione,25-acetate] the MIC ([1]; read-out: MIC, ETEC, 2 ETEC isolates) was 128 µg/mL (≈ 163 µM), the MIC ([1]; read-out: MIC, all ETEC and EAEC isolates, 5 ETEC and 2 EAEC isolates) was 64 to 128 µg/mL (≈ 81.4 to 163 µM) and the “IL-8 production from HCT-8 cells infected with rifaximin-exposed EAEC” value (“IL-8 production” for short) ([2]; EAEC exposed to rifaximin 64 mg/L for 4 hours) was “caused IL-8 production”. The “IL-8 production” value ([2]; EAEC exposed to rifaximin 8 or 32 mg/L for 4 or 8 hours) was “elicited production of IL-8”, the “IL-8 production” value ([2]; all other time points and rifaximin concentrations) was “Interleukin-8 was either undetected following HCT-8 infection with EAEC strains, or EAEC strains were not viable” and the “IL-8 production” value ([2]; viable EAEC exposed to rifaximin 8, 32, or 64 mg/L for 18 hours or 8 mg/L for 24 hours) was “did not elicit IL-8 production”. The MIC [3] was 64 µg/mL (≈ 81.4 µM), the “Expression of all examined virulence factors (ST, LT, CS2/CS3, CS6) by viable ETEC isolates” value (“Expression … by viable ETEC isolates” for short) ([4]; 4- and 8-hour exposure to rifaximin 8, 32, and 64 mg/L) was “expressed all examined virulence factors” and the “Expression … by viable ETEC isolates” value ([4]; 18-hour time point, rifaximin 8 mg/L) was “all virulence factors were expressed”. For the same compound, the “Expression … by viable ETEC isolates” value ([4]; 18-hour time point, rifaximin 32 mg/L) was “no factors were seen”, the “Expression … by viable ETEC isolates” value ([4]; 24-hour exposure to rifaximin 8 mg/L) was “did not express any virulence factors” and the “Expression of virulence factor CS2/CS3 in ETEC isolates” value (shortened to “Expression of virulence factor CS2/CS3”) [4, 11] was “+”. For the same compound, the “Expression of virulence factor CS6 in ETEC isolates” value (from here on “Expression of virulence factor CS6”) [4, 11] was “+”, the “Expression of virulence factor LT in ETEC isolates” value (“Expression of virulence factor LT” for short) [4, 11] was “+” and the “Expression of virulence factor ST in ETEC isolates” value [4, 11] was “+”. For the same compound, the “Expression of virulence factor ST/LT in ETEC isolates” value (“Expression of virulence factor ST/LT” below) [4, 11] was “+”, the “Expression of virulence factor CS2/CS3” value [4, 12] was “+” and the “Expression of virulence factor CS6” value [4, 12] was “+”. The “Expression of virulence factor LT” value [4, 12] was “+”, the “Expression of virulence factor ST in ETEC isolates” value [4, 12] was “+” and the “Expression of virulence factor ST/LT” value [4, 12] was “+”. The “Expression of virulence factor CS2/CS3” value [4, 13] was “+”, the “Expression of virulence factor CS6” value [4, 13] was “+” and the “Expression of virulence factor LT” value [4, 13] was “+”. For the same compound, the “Expression of virulence factor ST in ETEC isolates” value [4, 13] was “+”, the “Expression of virulence factor ST/LT” value [4, 13] was “+” and the “Expression of virulence factor CS2/CS3” value [4, 14] was “−”. The “Expression of virulence factor CS6” value [4, 14] was “−”, the “Expression of virulence factor LT” value [4, 14] was “−” and the “Expression of virulence factor ST in ETEC isolates” value [4, 14] was “−”. For the same compound, the “Expression of virulence factor ST/LT” value [4, 14] was “−”, the “Expression of virulence factor CS2/CS3” value [4, 15] was “+” and the “Expression of virulence factor CS6” value [4, 15] was “+”. For the same compound, the “Expression of virulence factor LT” value [4, 15] was “+”, the “Expression of virulence factor ST in ETEC isolates” value [4, 15] was “+” and the “Expression of virulence factor ST/LT” value [4, 15] was “+”. The “Expression of virulence factor CS2/CS3” value [4, 16] was “+”, the “Expression of virulence factor CS6” value [4, 16] was “+” and the “Expression of virulence factor LT” value [4, 16] was “+”. The “Expression of virulence factor ST in ETEC isolates” value [4, 16] was “+”, the “Expression of virulence factor ST/LT” value [4, 16] was “+” and the “Expression of virulence factor CS2/CS3” value [4, 17] was “−”. The “Expression of virulence factor CS6” value [4, 17] was “−”, the “Expression of virulence factor LT” value [4, 17] was “−” and the “Expression of virulence factor ST in ETEC isolates” value [4, 17] was “−”. For the same compound, the “Expression of virulence factor ST/LT” value [4, 17] was “−”, the “Expression of virulence factor CS2/CS3” value [4, 18] was “+” and the “Expression of virulence factor CS6” value [4, 18] was “+”. The “Expression of virulence factor LT” value [4, 18] was “+”, the “Expression of virulence factor ST in ETEC isolates” value [4, 18] was “+” and the “Expression of virulence factor ST/LT” value [4, 18] was “+”. For the same compound, the “Expression of virulence factor CS2/CS3” value [4, 19] was “+”, the “Expression of virulence factor CS6” value [4, 19] was “+” and the “Expression of virulence factor LT” value [4, 19] was “+”. For the same compound, the “Expression of virulence factor ST in ETEC isolates” value [4, 19] was “+”, the “Expression of virulence factor ST/LT” value [4, 19] was “+” and the “EAEC O42 adherence to HEp-2 cells (microscopy)” value [5] was “greatly reduced”. For the same compound, the MIC (S sonnei isolate) was 16 µg/mL (≈ 20.4 µM), the “isolates resistant to rifaximin, based on MIC values” (C difficile [6]; 110 C difficile isolates) was 2.7% and the “MIC50 against C difficile” value (C difficile [6]; 110 isolates, 1983 to 2004) was 0.0075 µg/mL (≈ 0.00954 µM). For the same compound, the “MIC90 against C difficile” value (C difficile [6]; 110 isolates, 1983 to 2004) was 0.015 µg/mL (≈ 0.0191 µM), the “isolates with MIC values >2 μg/mL” value (C difficile [7]; 201 C difficile isolates) was 4% and the “MIC50 against C difficile” value (C difficile [7]; [20]) was 0.008 µg/mL (≈ 0.0102 µM). The “MIC90 against C difficile” value (C difficile [7]; [20]) was 0.015 µg/mL (≈ 0.0191 µM), the “ETEC viability after exposure” value (ETEC strains; rifaximin 8 mg/L, 24-hour exposure) was “viable” and the “ETEC viability after exposure” value (ETEC strains; rifaximin 64 mg/L for 18 hours or 32 and 64 mg/L for 24 hours) was “No ETEC isolates were viable”. For the same compound, the “ETEC viability after exposure” value (ETEC strains; rifaximin 8, 32, and 64 mg/L for 4 and 8 hours, 8 and 32 mg/L for 18 hours) was “viable”, the “EAEC adherence to HCT-8 cells” value [8] was “Slightly fewer bacteria adhered to rifaximin-pretreated HCT-8 cells, but this difference was not significant” and the “MIC50 against C difficile” value (C difficile [9]; 359 isolates) was <0.01 µg/mL. The “MIC90 against C difficile” value (C difficile [9]; 359 isolates) was 0.25 µg/mL (≈ 0.318 µM), the “MIC50 against C difficile” value (C difficile [9]; 359 isolates, listed as rifaximin) was < 0.01 µg/mL and the “Isolates resistant to rifaximin alone (n = 11), (%)” value (from here on “Isolates resistant … (%)”) (C difficile [9]; genotype A +, B +, BT +, tcdC-del +) was “(0) %”. The “Isolates resistant … (%)” value (C difficile [9]; genotype A +, B +, BT +, tcdC-del −) was “(18) %”, the “Isolates resistant … (%)” value (C difficile [9]; genotype A +, B +, BT −, tcdC-del +) was “(9) %” and the “Isolates resistant … (%)” value (C difficile [9]; genotype A +, B +, BT −, tcdC-del −) was “(55) %”. The “Isolates resistant … (%)” value (C difficile [9]; genotype A −, B −, BT −, tcdC-del −) was “(18) %” and the “EAEC adherence after mixing with dialyzed supernatants of antibiotic-treated HEp-2 cells” value [10] was “adhered poorly”.
